In patent publication US20230241088A1, “COMPOSITION FOR PREVENTING OR TREATING LUNG CANCER COMPRISING ORTHO-TOPOLIN RIBOSIDE AS ACTIVE INGREDIENT” (CHUNG-ANG UNIVERSITY INDUSTRY-ACADEMY COOPERATION FOUNDATION, priority 2022, published 2023):
Like-named read-outs stand apart in the source and are kept apart here.

How the values were obtained:
[1] = test system: NSCLC cell lines (A549, H1437, H2087, H522, and HCC827); experiment: GC-MS and nanoESI-MS metabolite and lipid profiling of NSCLC cells; format: cell-based, Human
Method: The cells were seeded at a density of 2×10^5 cells/mL in a 6-well plate and treated with oTR (10 μM) for 48 hours. The cells were pooled from 3 wells in the 6-well plate and centrifuged at 1,000×g at 4° C. for 2 minutes. The cells were frozen in liquid nitrogen and stored at −70° C. until analysis. The cells were lysed by two freeze-thaw cycles using liquid nitrogen and 37° C. water bath. Protein concentrations were determined using the Bio-Rad protein assay kit (Thermo Scientific, Rockford, Ill.). Bovine serum albumin (BSA) was used as a standard for normalization. The cells were freeze-dried and stored at −70° C. until additional analysis.
To perform metabolite and lipid analyses of the extracted samples of NSCLC cells and xenograft tumor tissues, GC-MS and nanoESI-MS analyses were conducted according to a previously described method. For quality control (QC), the equal volume of mixture was taken from each sample to be analyzed.
Raw data files of the lipid analysis (*.raw) were converted into *.mzXML format using the Proteo Wizard MSConvert software. The metabolite and lipid mass spectra were converted using the Expressionist® MSX software (version 2013.0.39, Genedata, Basel, Switzerland) for data processing. The data obtained from NSCLC cells were divided by the peak intensity of the internal standard and total protein content for normalization. The data obtained from the NSCLC xenograft model were divided by the peak intensity of the internal standard for normalization. The data obtained thereby were used for fold-change analysis using the MetaboAnalyst (version 5.0; http://www.metaboanalyst.ca). SPSS software (version 26, IBM, Somers, N.Y.) was used for significance examination for the results, and identification was conducted by Student's t-test and Mann-Whitney test. All data were mean-centered and pretreated to Pareto scaling for principal component analysis (PCA) and orthogonal partial least-squares discriminant analysis (OPLS-DA), performed using the SIMCA-P software (version 15.0.2, Sartorius Stedim Data Analytics AB, Umea, Sweden). Cross validations and permutation tests (100 times) were performed to evaluate the goodness of fit value and predictability of the OPLS-DA model. Volcano plots were generated using the GraphPad Prism 9.0.
oTR-induced alterations of metabolic and lipidomic profiles were analyzed using 5 NSCLC cell lines (A549, H1437, H2087, H522, and HCC827) and xenograft tumor tissues by performing GC-MS and nanoESI-MS analyses. The relative changes in identified metabolites and intact lipid species are shown as fold-changes. […]

[2] = test system: A549 cells tumor xenograft; settings: for tumor volume compared to control group: after the second treatment (day 7)
Method: To evaluate the anticancer effect of oTR in tumor tissues, a tumor xenograft model was established by injecting 2.5×10^6 A549 cells into the flanks of nude mice (female, BALB/cSlc-nu/nu). After the tumor volume reached above 100 mm^3 after approximately 3 weeks, the mice were randomized into negative controls and experimental groups (5 mice were used per group). Mice were then injected with oTR solution into the tumor area twice a week for 3 weeks. oTR was dissolved in saline:DMSO (1:1, v/v), and 50 μL of oTR solution was injected into mice in a dose of 100 mg/kg or 150 mg/kg. […] Negative controls were injected with saline:DMSO (1:1, v/v) without oTR. Tumor volume, mouse body weight, and mouse survival were recorded twice a week before injecting oTR. Tumor length (a) and width (b) were measured using calipers and tumor volume (mm^3) was calculated by =(a×b^2)/2.
Tumor xenograft mice were treated with oTR at two doses (100 mg/kg and 150 mg/kg). The tumor volume was measured twice a week for 3 weeks to evaluate the therapeutic effects of the drug in vivo.

[3] = test system: H1437; experiment: MTT cell viability assay, H1437; format: cell-based, Human; settings: 48 hours
Method: (§1) Human NSCLC cell lines A549, H1437, H2087, H522, and HCC827 were obtained from the Korean Cell Line Bank (KCLB, Seoul, Korea). These cells were cultured in RPMI-1640 medium (Gibco, N.Y., USA) supplemented with 10% FBS (Gibco) and 1% penicillin-streptomycin (HyClone Laboratories, Logan, Utah, USA). All cell lines were cultured under standard conditions (5% CO2, humid environment, 37° C.). A549 cells were seeded at a density of 1×10^4 cells/well and H1437, H2087, H522, HCC827, and MRCS cells at a density of 2×10^4 cells/well in 96-well plates and were cultured until cells reach approximately 70-80% confluency. The NSCLC cells were treated with plant hormones for 48 hours. Stock solution of each plant hormone was diluted with culture medium, wherein concentrations of DMSO, water, methanol, and ethanol in the culture medium were below 1% (v/v). The half-maximal inhibitory concentration (IC50) was calculated using CompuSyn software (ComboSyn Inc., Paramus, N.J., USA).
(§2) The inhibitory effect of plant hormones and their derivatives was investigated on 5 NSCLC cell lines (A549, H1437, H2087, H522, and HCC827). The NSCLC cells were treated with ABA, Cor, ethephon, GR-24, IAA, KR, MJ, N6b, N6i, oTR, and SS-HCS at concentrations of 0.1, 0.5, 1, 5, 10, 50, and 100 μM. Cell viability and IC50 values for 48 hours were investigated by performing the MTT assay.

[4] = test system: H522; experiment: MTT cell viability assay, H522; format: cell-based, Human; settings: 48 hours
Method: as §1, §2

[5] = test system: HCC827; experiment: MTT cell viability assay, HCC827; format: cell-based, Human; settings: 48 hours
Method: as §1, §2

Compound: OC[C@H]1O[C@@H](n2cnc3c(NCc4ccccc4O)ncnc32)[C@H](O)[C@@H]1O [oTR, ortho topolin riboside]
- lactate level ([1]; all NSCLC cell lines, oTR 10 μM, 48 hours): significantly decreased
- levels of myo-inositol, amino acids, organic acids (malate and lactate), pyrimidines (uracil and uridine), creatinine, hypoxanthine, putrescine ([1]; oTR 10 μM, 48 hours, vs untreated NSCLC cells): decreased
- PC, PE, and PS species and Cer 18:1/22:0 levels ([1]; oTR-treated NSCLC cells): increased
- levels of PG and PI species ([1]; oTR-treated NSCLC cells): decreased
- dose dependence of oTR-induced changes in tumor volume ([2]; 100 mg/kg vs 150 mg/kg): did not decrease in a dose-dependent manner
- tumor volume compared to control group ([2]; 100 mg/kg): significantly decreased
- tumor volume compared to control group ([2]; 150 mg/kg): significantly decreased
- reduction of body weight relative to initial body weight ([2]; mouse, in vivo): ≤ 5%
- IC50 [3]: 50 ± 6.55 µM
- IC50 [4]: 26.1 ± 2.47 µM
- IC50 [5]: 29.7 ± 2.56 µM
